Laboratory results: patent publication US20100178334A1, “Oral Pharmaceutical Dosage Form Comprising as Active Ingredients a Proton Pump Inhibitor together with Acetyl Salicyclic Acid” (priority 2005, published 2010)

Columns and labels:
[1] = system: ulcer complication like bleeding from the stomach or the duodenum; settings: cited from earlier work
[2] = system: gastric and/or duodenal ulcers in Helicobacter pylori-negative patients ≧60 years receiving ASA; test: randomized, multicenter, placebo-controlled trial of esomeprazole 20 mg once daily for 26 weeks in patients receiving ASA; assay type: in vivo, human
Method: Patients were randomized to receive either esomeprazole 20 mg (administered as esomeprazole magnesium, i.e. Nexium® owned by AstraZeneca AB) or placebo once daily for 26 weeks. The primary outcome variable was the presence of gastric and/or duodenal ulcers at endoscopy over the 26-week period. A total of 991 patients, all receiving ASA in doses varying between 75-325 mg/day (57.1% male, mean age 69.3 years, mean acetyl salicylic acid (ASA) dose 124.0 mg/day) were included in the intent-to-treat population. The cumulative proportion of patients without either gastric or duodenal ulcer at 26 weeks was 98.2% with esomeprazole, compared with 93.8% with placebo (life table estimates, p=0.0007). The incidence of gastric ulcers was lower in patients taking esomeprazole than in those taking placebo (1.2% vs. 3.8%), as was the incidence of duodenal ulcers (0.4% and 1.6% for esomeprazole and placebo, respectively). Eight patients (1.6%) had developed an ulcer, in the esomeprazole group by 6 months, compared with 27 patients (5.4%) in the placebo group. This corresponded to a relative reduction of developing an ulcer of 70% when taking esomeprazole rather than placebo. A total of 95.6% of patients treated with esomeprazole had no esophageal lesions at week 26, compared with 81.7% of patients treated with placebo (p<0.0001).

[3] = system: damages on the mucosa caused by ASA; settings: concomitant administration for patients treated with ASA; cited from earlier work
[4] = esomeprazole 20 mg once daily, 26 weeks, patients on ASA

In the case of `CC(=O)Oc1ccccc1C(=O)O` [ASA, acetyl salicylic acid], the “relative risk of developing an ulcer complication like bleeding from the stomach or the duodenum” value ([1]; daily dose as low as 75 mg (Weil et al)) is given as “doubles” and the “hospital admissions due to adverse drug reactions caused by ASA” value ([1]; epidemiological data from the UK (Pirmohamed et al)) is given as 18%.
In the case of `COc1ccc2nc([S@@+]([O-])Cc3ncc(C)c(OC)c3C)[nH]c2c1` [esomeprazole], the “resolution of investigator-assessed upper gastrointestinal symptoms” value ([2]; all symptoms, versus placebo) is reported as “higher with esomeprazole than with placebo”, the “relative reduction of developing an ulcer when taking esomeprazole rather than placebo” value ([2]; by 6 months, versus placebo) is reported as 70% and the safety and tolerability ([2]; esomeprazole 20 mg once daily for 26 weeks) is reported as “safe and well tolerated”. The “incidence of duodenal ulcers” value [2, 4] was 0.4%, the “incidence of gastric ulcers” value [2, 4] was 1.2% and the “patients who had developed an ulcer by 6 months” value ([2]; esomeprazole 20 mg once daily, patients on ASA, eight patients) was 1.6%. The “proportion of patients without esophageal lesions at 6 months” value ([2]; patients with no lesions and those with Los Angeles grade A lesions at baseline, versus placebo) was “higher with esomeprazole than with placebo”.
For `Cc1c(OCC(F)(F)F)ccnc1C[S+]([O-])c1nc2ccccc2[nH]1` (stereo not shown) [lansoprazole], the “effect on damages on the mucosa caused by ASA” value [3] is listed as “reduce damages on the mucosa caused by ASA”.
